Experimental data taken from ChEMBL document CHEMBL1144604, “Synthesis and biological evaluation of phosphonate derivatives as autotaxin (ATX) inhibitors” (Bioorg Med Chem Lett, 2007).
Each block holds one compound with its values, some of them ahead of it.

Legend:
Autotaxin (Homo sapiens) [1] = molecular target: Autotaxin (Homo sapiens) (UniProt Q13822); experiment: Inhibition of human recombinant ATX at 10 uM after 16 hrs; values are per cent of control
Autotaxin (Homo sapiens) [2] = molecular target: Autotaxin (Homo sapiens) (UniProt Q13822); experiment: Inhibition of human recombinant ATX at 100 uM after 16 hrs; values are per cent of control
Autotaxin (Homo sapiens) [3] = molecular target: Autotaxin (Homo sapiens) (UniProt Q13822); experiment: Inhibition of human recombinant ATX at 1 uM after 16 hrs; values are per cent of control

SMILES: CCCCCCCCCC(=O)N[C@H](Cc1ccc(OCc2ncc(C)c(OC)c2C)cc1)C(O)CP(=O)(O)O (stereo partly specified)
- residual activity (Autotaxin (Homo sapiens) [1]): 86%
- residual activity (Autotaxin (Homo sapiens) [2]): 30%

SMILES: CCCCCCCCCCCCCCCC(=O)N[C@@H](Cc1ccc(OCc2cc(OCC(F)(F)F)ccn2)cc1)C(=O)CP(=O)(O)O
- residual activity (Autotaxin (Homo sapiens) [3]): 79%
- residual activity (Autotaxin (Homo sapiens) [1]): 68%
- residual activity (Autotaxin (Homo sapiens) [2]): 44%

SMILES: CCCCCCCCCCCCCCCC(=O)N[C@H](Cc1ccc(OCc2cc(OCC(F)(F)F)ccn2)cc1)C(=O)CP(=O)(O)O
- residual activity (Autotaxin (Homo sapiens) [3]): 85%
- residual activity (Autotaxin (Homo sapiens) [1]): 70%
- residual activity (Autotaxin (Homo sapiens) [2]): 57%

SMILES: CCCCCCCCCCCCCCCC(=O)N[C@H](Cc1ccc(OCC2CCCCC2)cc1)C(O)CP(=O)(O)O (single isomer, unassigned)
- residual activity (Autotaxin (Homo sapiens) [3]): 84%
- residual activity (Autotaxin (Homo sapiens) [1]): 80%
- residual activity (Autotaxin (Homo sapiens) [2]): 67%

SMILES: CCCCCCCC/C=C/CCCCCCCC(=O)N[C@@H](Cc1ccc(OCc2ncc(C)c(OC)c2C)cc1)C(O)CP(=O)(O)O (single isomer, unassigned; diastereomer a)
- residual activity (Autotaxin (Homo sapiens) [1]): 45%
- residual activity (Autotaxin (Homo sapiens) [2]): 15%

SMILES: CCCCCCCCCCCCCC(=O)N[C@H](Cc1ccc(OCc2ncc(C)c(OC)c2C)cc1)C(O)CP(=O)(O)O (single isomer, unassigned; diastereomer a)
- residual activity (Autotaxin (Homo sapiens) [1]): 99%
- residual activity (Autotaxin (Homo sapiens) [2]): 67%

SMILES: CCCCCCCCCCCCCCCC(=O)N[C@@H](Cc1ccc(OC)cc1)C(O)CP(=O)(O)O (single isomer, unassigned; diastereomer a)
- residual activity (Autotaxin (Homo sapiens) [3]): 77%
- residual activity (Autotaxin (Homo sapiens) [1]): 56%
- residual activity (Autotaxin (Homo sapiens) [2]): 36%

SMILES: CCCCCCCCCCCCCCCC(=O)N[C@@H](Cc1ccc(OCc2ccccc2)cc1)C(O)CP(=O)(O)O (single isomer, unassigned; diastereomer a)
- residual activity (Autotaxin (Homo sapiens) [3]): 97%
- residual activity (Autotaxin (Homo sapiens) [1]): 77%
- residual activity (Autotaxin (Homo sapiens) [2]): 68%

SMILES: CCCCCCCCCCCCCCCC(=O)N[C@@H](Cc1ccc(OCc2ccccn2)cc1)C(O)CP(=O)(O)O (single isomer, unassigned; diastereomer a)
- residual activity (Autotaxin (Homo sapiens) [3]): 104%
- residual activity (Autotaxin (Homo sapiens) [1]): 81%
- residual activity (Autotaxin (Homo sapiens) [2]): 52%

SMILES: CCCCCCCCCCCCCCCC(=O)N[C@H](Cc1ccc(OC)cc1)C(O)CP(=O)(O)O (single isomer, unassigned; diastereomer a)
- residual activity (Autotaxin (Homo sapiens) [3]): 100%
- residual activity (Autotaxin (Homo sapiens) [1]): 78%
- residual activity (Autotaxin (Homo sapiens) [2]): 57%

SMILES: CCCCCCCCCCCCCCCC(=O)N[C@H](Cc1ccc(OCCC(C)C)cc1)C(O)CP(=O)(O)O (single isomer, unassigned; diastereomer a)
- residual activity (Autotaxin (Homo sapiens) [3]): 103%
- residual activity (Autotaxin (Homo sapiens) [1]): 104%
- residual activity (Autotaxin (Homo sapiens) [2]): 72%

SMILES: CCCCCCCCCCCCCCCC(=O)N[C@H](Cc1ccc(OCc2cc(OCC(F)(F)F)ccn2)cc1)C(O)CP(=O)(O)O (single isomer, unassigned; diastereomer a)
- residual activity (Autotaxin (Homo sapiens) [3]): 92%
- residual activity (Autotaxin (Homo sapiens) [1]): 84%
- residual activity (Autotaxin (Homo sapiens) [2]): 55%

SMILES: CCCCCCCCCCCCCCCC(=O)N[C@H](Cc1ccc(OCc2ccccc2)cc1)C(O)CP(=O)(O)O (single isomer, unassigned; diastereomer a)
- residual activity (Autotaxin (Homo sapiens) [3]): 83%
- residual activity (Autotaxin (Homo sapiens) [1]): 82%
- residual activity (Autotaxin (Homo sapiens) [2]): 83%

SMILES: CCCCCCCCCCCCCCCC(=O)N[C@H](Cc1ccc(OCc2ncc(C)c(OC)c2C)cc1)C(O)CP(=O)(O)O (single isomer, unassigned; diastereomer a)
- residual activity (Autotaxin (Homo sapiens) [3]): 108%
- residual activity (Autotaxin (Homo sapiens) [1]): 95%
- residual activity (Autotaxin (Homo sapiens) [2]): 63%

SMILES: CCCCCCCCCCCCCCCCCCCC(=O)N[C@@H](Cc1ccc(OCc2ncc(C)c(OC)c2C)cc1)C(O)CP(=O)(O)O (single isomer, unassigned; diastereomer a)
- residual activity (Autotaxin (Homo sapiens) [3]): 64%
- residual activity (Autotaxin (Homo sapiens) [1]): 45%
- residual activity (Autotaxin (Homo sapiens) [2]): 10%

SMILES: CCCCCCCCCCCCCCCC(=O)N[C@@H](Cc1ccc(OCC2CCCCC2)cc1)C(O)CP(=O)(O)O (single isomer, unassigned; diastereomer b)
- residual activity (Autotaxin (Homo sapiens) [3]): 80%
- residual activity (Autotaxin (Homo sapiens) [1]): 80%
- residual activity (Autotaxin (Homo sapiens) [2]): 80%

SMILES: CCCCCCCCCCCCCCCC(=O)N[C@@H](Cc1ccc(OCc2ccccc2)cc1)C(O)CP(=O)(O)O (single isomer, unassigned; diastereomer b)
- residual activity (Autotaxin (Homo sapiens) [3]): 76%
- residual activity (Autotaxin (Homo sapiens) [1]): 83%
- residual activity (Autotaxin (Homo sapiens) [2]): 78%

SMILES: CCCCCCCCCCCCCCCC(=O)N[C@@H](Cc1ccc(OCc2ccccn2)cc1)C(O)CP(=O)(O)O (single isomer, unassigned; diastereomer b)
- residual activity (Autotaxin (Homo sapiens) [1]): 74%
- residual activity (Autotaxin (Homo sapiens) [2]): 65%

SMILES: CCCCCCCCCCCCCCCC(=O)N[C@H](Cc1ccc(OCCC(C)C)cc1)C(O)CP(=O)(O)O (single isomer, unassigned; diastereomer b)
- residual activity (Autotaxin (Homo sapiens) [1]): 104%
- residual activity (Autotaxin (Homo sapiens) [2]): 94%

SMILES: CCCCCCCCCCCCCCCC(=O)N[C@H](Cc1ccc(OCc2cc(OCC(F)(F)F)ccn2)cc1)C(O)CP(=O)(O)O (single isomer, unassigned; diastereomer b)
- residual activity (Autotaxin (Homo sapiens) [1]): 84%
- residual activity (Autotaxin (Homo sapiens) [2]): 64%

SMILES: CCCCCCCCCCCCCCCC(=O)N[C@H](Cc1ccc(OCc2ccccc2)cc1)C(O)CP(=O)(O)O (single isomer, unassigned; diastereomer b)
- residual activity (Autotaxin (Homo sapiens) [3]): 80%
- residual activity (Autotaxin (Homo sapiens) [1]): 81%
- residual activity (Autotaxin (Homo sapiens) [2]): 83%

SMILES: CCCCCCCCCCCCCCCC(=O)N[C@H](Cc1ccc(OCc2ccccn2)cc1)C(O)CP(=O)(O)O (single isomer, unassigned; diastereomer b)
- residual activity (Autotaxin (Homo sapiens) [3]): 92%
- residual activity (Autotaxin (Homo sapiens) [1]): 78%
- residual activity (Autotaxin (Homo sapiens) [2]): 69%

SMILES: CCCCCCCCCCCCCCCC(=O)N[C@H](Cc1ccc(OCc2ncc(C)c(OC)c2C)cc1)C(O)CP(=O)(O)O (single isomer, unassigned; diastereomer b)
- residual activity (Autotaxin (Homo sapiens) [3]): 69%
- residual activity (Autotaxin (Homo sapiens) [1]): 64%
- residual activity (Autotaxin (Homo sapiens) [2]): 47%

SMILES: CCCCCCCCCCCCCCCCCC(=O)N[C@@H](Cc1ccc(OCc2ncc(C)c(OC)c2C)cc1)C(O)CP(=O)(O)O (single isomer, unassigned; diastereomer b)
- residual activity (Autotaxin (Homo sapiens) [1]): 90%
- residual activity (Autotaxin (Homo sapiens) [2]): 62%

SMILES: CCCCCCCCCCCCCC(=O)N[C@H](Cc1ccc(OCc2ncc(C)c(OC)c2C)cc1)C(O)CP(=O)(O)O (stereo in doubt; f38)
- residual activity (Autotaxin (Homo sapiens) [2]): 35%

Continued, values first:

- residual activity (Autotaxin (Homo sapiens) [3]): 96%
- residual activity (Autotaxin (Homo sapiens) [1]): 68%
- residual activity (Autotaxin (Homo sapiens) [2]): 45%
SMILES: CCCCCCCCCCCCCCCC(=O)N[C@@H](Cc1ccc(OC)cc1)C(=O)CP(=O)(O)O

- residual activity (Autotaxin (Homo sapiens) [3]): 104%
- residual activity (Autotaxin (Homo sapiens) [1]): 104%
- residual activity (Autotaxin (Homo sapiens) [2]): 85%
SMILES: CCCCCCCCCCCCCCCC(=O)N[C@@H](Cc1ccc(OCCC(C)C)cc1)C(=O)CP(=O)(O)O

- residual activity (Autotaxin (Homo sapiens) [1]): 97%
- residual activity (Autotaxin (Homo sapiens) [2]): 72%
SMILES: CCCCCCCCCCCCCCCC(=O)N[C@@H](Cc1ccc(OCCC)cc1)C(=O)CP(=O)(O)O

- residual activity (Autotaxin (Homo sapiens) [3]): 95%
- residual activity (Autotaxin (Homo sapiens) [1]): 83%
SMILES: CCCCCCCCCCCCCCCC(=O)N[C@@H](Cc1ccc(OCCCCC)cc1)C(=O)CP(=O)(O)O

- residual activity (Autotaxin (Homo sapiens) [1]): 71%
- residual activity (Autotaxin (Homo sapiens) [2]): 61%
SMILES: CCCCCCCCCCCCCCCC(=O)N[C@@H](Cc1ccc(OCc2ccccc2)cc1)C(=O)CP(=O)(O)O

- residual activity (Autotaxin (Homo sapiens) [3]): 102%
- residual activity (Autotaxin (Homo sapiens) [1]): 72%
- residual activity (Autotaxin (Homo sapiens) [2]): 50%
SMILES: CCCCCCCCCCCCCCCC(=O)N[C@@H](Cc1ccc(OCc2ccccn2)cc1)C(=O)CP(=O)(O)O

- residual activity (Autotaxin (Homo sapiens) [3]): 84%
- residual activity (Autotaxin (Homo sapiens) [1]): 71%
- residual activity (Autotaxin (Homo sapiens) [2]): 32%
SMILES: CCCCCCCCCCCCCCCC(=O)N[C@H](Cc1ccc(OC)cc1)C(=O)CP(=O)(O)O

- residual activity (Autotaxin (Homo sapiens) [3]): 97%
- residual activity (Autotaxin (Homo sapiens) [1]): 101%
- residual activity (Autotaxin (Homo sapiens) [2]): 76%
SMILES: CCCCCCCCCCCCCCCC(=O)N[C@H](Cc1ccc(OCCC(C)C)cc1)C(=O)CP(=O)(O)O

- residual activity (Autotaxin (Homo sapiens) [3]): 104%
- residual activity (Autotaxin (Homo sapiens) [1]): 97%
- residual activity (Autotaxin (Homo sapiens) [2]): 75%
SMILES: CCCCCCCCCCCCCCCC(=O)N[C@H](Cc1ccc(OCCC)cc1)C(=O)CP(=O)(O)O

- residual activity (Autotaxin (Homo sapiens) [3]): 93%
- residual activity (Autotaxin (Homo sapiens) [1]): 84%
SMILES: CCCCCCCCCCCCCCCC(=O)N[C@H](Cc1ccc(OCCCCC)cc1)C(=O)CP(=O)(O)O

- residual activity (Autotaxin (Homo sapiens) [1]): 82%
- residual activity (Autotaxin (Homo sapiens) [2]): 76%
SMILES: CCCCCCCCCCCCCCCC(=O)N[C@H](Cc1ccc(OCc2ccccc2)cc1)C(=O)CP(=O)(O)O

- residual activity (Autotaxin (Homo sapiens) [3]): 78%
- residual activity (Autotaxin (Homo sapiens) [1]): 68%
- residual activity (Autotaxin (Homo sapiens) [2]): 52%
SMILES: CCCCCCCCCCCCCCCC(=O)N[C@H](Cc1ccc(OCc2ccccn2)cc1)C(=O)CP(=O)(O)O

- residual activity (Autotaxin (Homo sapiens) [3]): 71%
- residual activity (Autotaxin (Homo sapiens) [1]): 74%
- residual activity (Autotaxin (Homo sapiens) [2]): 26%
SMILES: CCCCCCCCCCCCCCCC(=O)N[C@H](Cc1ccc(OCc2ncc(C)c(OC)c2C)cc1)C(=O)CP(=O)(O)O

- residual activity (Autotaxin (Homo sapiens) [3]): 110%
- residual activity (Autotaxin (Homo sapiens) [1]): 97%
- residual activity (Autotaxin (Homo sapiens) [2]): 77%
SMILES: CCCCCCCCCCCCCCCC(=O)N[C@@H](Cc1ccc(OCCC)cc1)C(O)CP(=O)(O)O (single isomer, unassigned; diastereomer a)

- residual activity (Autotaxin (Homo sapiens) [3]): 98%
- residual activity (Autotaxin (Homo sapiens) [1]): 83%
- residual activity (Autotaxin (Homo sapiens) [2]): 67%
SMILES: CCCCCCCCCCCCCCCC(=O)N[C@@H](Cc1ccc(OCCCCC)cc1)C(O)CP(=O)(O)O (single isomer, unassigned; diastereomer a)

- residual activity (Autotaxin (Homo sapiens) [3]): 81%
- residual activity (Autotaxin (Homo sapiens) [1]): 85%
- residual activity (Autotaxin (Homo sapiens) [2]): 80%
SMILES: CCCCCCCCCCCCCCCC(=O)N[C@H](Cc1ccc(OCCCCC)cc1)C(O)CP(=O)(O)O (single isomer, unassigned; diastereomer a)

- residual activity (Autotaxin (Homo sapiens) [3]): 100%
- residual activity (Autotaxin (Homo sapiens) [1]): 100%
- residual activity (Autotaxin (Homo sapiens) [2]): 83%
SMILES: CCCCCCCCCCCCCCCC(=O)N[C@@H](Cc1ccc(OCCC)cc1)C(O)CP(=O)(O)O (single isomer, unassigned; diastereomer b)

- residual activity (Autotaxin (Homo sapiens) [3]): 94%
- residual activity (Autotaxin (Homo sapiens) [1]): 90%
- residual activity (Autotaxin (Homo sapiens) [2]): 70%
SMILES: CCCCCCCCCCCCCCCC(=O)N[C@@H](Cc1ccc(OCCCCC)cc1)C(O)CP(=O)(O)O (single isomer, unassigned; diastereomer b)

- residual activity (Autotaxin (Homo sapiens) [3]): 108%
- residual activity (Autotaxin (Homo sapiens) [1]): 108%
- residual activity (Autotaxin (Homo sapiens) [2]): 90%
SMILES: CCCCCCCCCCCCCCCC(=O)N[C@H](Cc1ccc(OCCC)cc1)C(O)CP(=O)(O)O (single isomer, unassigned; diastereomer b)

- residual activity (Autotaxin (Homo sapiens) [3]): 86%
- residual activity (Autotaxin (Homo sapiens) [1]): 82%
- residual activity (Autotaxin (Homo sapiens) [2]): 70%
SMILES: CCCCCCCCCCCCCCCC(=O)N[C@H](Cc1ccc(OCCCCC)cc1)C(O)CP(=O)(O)O (single isomer, unassigned; diastereomer b)
